From patent US10183039B2, “Methods for the production of collagen IV” (Vanderbilt University, priority 2013, dated 2019)

Key:
[1] = system: Drosophila melanogaster w1118; settings: in vivo
Method: FIGS. 11A-C. […] WT Eggs from 3 day Br-depleted and Br-Added females were collected and transferred to new 35 mm culture dishes filled with 3 ml of vitamin and mineral spiked phytagel as the semi-solid support. 100 μL of Yeast paste±100 μM Br—(200 mg yeast/500 μL ddH2O) was added to the center of each dish. Larvae were transferred to fresh dishes and counted every 24-36 hours. WT flies were reared in the presence of 80 mM total Br-Free NaCl. For Br-Added conditions, both the phytagel and yeast paste were spiked with 100 μM NaBr to ensure constant and consistent exposure. Adults were fed identical food as part of the depletion regime. PxnF07229 homozygous larvae were separated from heterozygous larvae and collected 48 hours after hatching on a Br-Free vs Br-Added plates from parents fed a standard diet. After transfer to these fresh Br-experimental diet plates, they were transferred and counted similarly to the WT larvae under normal 20 mM NaCl conditions. The experimental cohorts [Br-Free (n=34), Br-Added (n=40), Br-Free PxnF07229 (n=14), and Br-Added PxnF07229 (n=19)] were followed until death or 2-days after eclosion of the last fly in the cohort. […] Scale bars in the insets represent 200 μm, and in the whole pictures 500 μm. The image of PxnF07229 larvae is from a Br-Added experimental diet. (FIG. 11C) Representative pictures of the corresponding gut dissections to FIG. 11B. Scale bars are 500 μm.
(FIG. 17A) Generational Br-depletion scheme (FIG. 17B). Generation 1 survival and time-to-development curves for w^1118 flies on the standard diet vs experimental diets. Embryos from mothers fed a standard diet were placed on the indicated diet, and progeny were scored every 24 hours. […] Data plotted as the group median±interquartile range. N=30 for each group. […] (FIG. 17C) Generation 2 developmental survival on experimental diets. n>40 for each cohort. Tested by Log-Rank test. (FIG. 17D) Percentage of eggs (mean+/−95% C.I.) completing embryogenesis from mothers reared on Br-free^DEP or Br-added^DEP diets for […]. In the Br-free^DEP experimental group, mothers were fed Br-free synthetic diet containing 80 mM total NaCl (Br-free^DEP) for 3 days prior to egg collection. The Br-added^DEP was treated in the same manner except that 100 μM NaBr was added to all food components of the Br-free^DEP synthetic diet. […] Analyzed by the Mann-Whitney U test. (FIG. 17E) Survival curve for w^1118 flies under Br-free^DEP or Br-added^DEP dietary conditions. […] Associated larval Br-content was measured by EINAA. Bonds/hexamer were calculated from the Western blot. […] BMs from 15 independent sections for each group were evaluated for thickness and the histograms plotted. […]

human peroxidasin = human peroxidasin (Homo sapiens, UniProt Q92626); assay: biochemical
Chain of human peroxidasin (Q92626 27-1479): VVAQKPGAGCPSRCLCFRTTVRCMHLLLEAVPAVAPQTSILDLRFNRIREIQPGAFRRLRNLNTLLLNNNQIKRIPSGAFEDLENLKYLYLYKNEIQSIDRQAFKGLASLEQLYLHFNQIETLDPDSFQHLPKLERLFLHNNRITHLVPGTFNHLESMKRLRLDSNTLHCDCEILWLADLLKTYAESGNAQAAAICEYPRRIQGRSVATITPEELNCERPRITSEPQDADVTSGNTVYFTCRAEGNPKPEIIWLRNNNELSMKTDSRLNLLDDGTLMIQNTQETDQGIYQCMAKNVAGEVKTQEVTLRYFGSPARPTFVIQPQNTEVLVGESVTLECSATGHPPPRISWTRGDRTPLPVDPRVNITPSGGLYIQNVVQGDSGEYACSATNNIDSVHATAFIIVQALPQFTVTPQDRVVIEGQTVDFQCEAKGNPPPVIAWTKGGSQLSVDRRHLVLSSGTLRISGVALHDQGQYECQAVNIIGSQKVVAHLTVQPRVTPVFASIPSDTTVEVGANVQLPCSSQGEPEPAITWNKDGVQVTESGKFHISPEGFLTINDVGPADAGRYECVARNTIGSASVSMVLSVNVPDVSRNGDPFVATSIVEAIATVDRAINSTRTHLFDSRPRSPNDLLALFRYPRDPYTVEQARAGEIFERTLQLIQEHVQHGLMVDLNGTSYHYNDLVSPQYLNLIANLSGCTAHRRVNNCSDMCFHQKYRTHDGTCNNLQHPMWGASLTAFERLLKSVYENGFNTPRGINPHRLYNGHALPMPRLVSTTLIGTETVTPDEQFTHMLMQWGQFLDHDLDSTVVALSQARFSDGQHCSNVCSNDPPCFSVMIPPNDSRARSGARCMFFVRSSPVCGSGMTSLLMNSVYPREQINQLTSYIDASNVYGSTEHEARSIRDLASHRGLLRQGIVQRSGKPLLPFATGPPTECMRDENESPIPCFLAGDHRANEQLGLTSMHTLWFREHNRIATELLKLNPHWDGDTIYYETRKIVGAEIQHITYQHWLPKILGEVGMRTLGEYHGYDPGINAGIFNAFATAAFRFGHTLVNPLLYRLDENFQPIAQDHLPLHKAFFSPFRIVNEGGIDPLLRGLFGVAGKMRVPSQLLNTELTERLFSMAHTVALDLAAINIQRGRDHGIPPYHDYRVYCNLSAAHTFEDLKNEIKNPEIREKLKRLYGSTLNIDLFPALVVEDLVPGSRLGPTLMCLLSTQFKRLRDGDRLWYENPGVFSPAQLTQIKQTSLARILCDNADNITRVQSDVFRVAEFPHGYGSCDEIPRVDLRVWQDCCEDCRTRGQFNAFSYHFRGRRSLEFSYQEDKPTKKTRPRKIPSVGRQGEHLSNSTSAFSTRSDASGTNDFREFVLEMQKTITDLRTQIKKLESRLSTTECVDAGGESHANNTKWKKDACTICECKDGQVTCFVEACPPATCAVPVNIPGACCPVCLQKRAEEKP
Method: (FIG. 8A) Matrix pellets isolated from KI-treated PFHR9 cell culture were extensively washed into 10 mM phosphate buffer (pH 7.4) supplemented with 100 mM KF to maintain ionic strength. Potassium salts of Cl— or Br— were added in indicated amounts. 1 hr reactions at 37° C. were initiated by addition of H2O2 to 1 mM and stopped by freezing at −20° C. […] Reagent KCl was commercially obtained and unaltered prior to analysis. 100 mM solutions were made with 18MΩ deionized water. (FIG. 8C) Coomassie blue stained gel of collagenase digested PFHR-9 matrix reaction assay. Reaction buffered contained 10 mM phosphate buffer (pH 7.4), 100 mM Br-Free or Commercially obtained reagent grade KCl, as well as 1 mM H2O2 and 200 μM PHG where appropriate. […] Reactions were run for 10 minutes at 37° C. with 10 μM H2O2 as the terminal oxidant. Dose-response curve run in the presence of 1× Br-Free PBS. Reactions were quenched with 0.2 mg/ml Catalase, 20 mM Methionine, and 1 mM PHG. EC50 value±95% C.I. from two independent experiments with each data point plotted and fit.
HEK293 cells stably transfected with the human peroxidasin coding sequence27 were grown to confluency, and the medium was changed to serum-free DMEM/F12 plus 5 μM hematin plus 5 mM sodium butyrate. […]

SMILES: Br [bromide]
- Generation 2 larval survival [1]: rescued
- developmental progression of PxnF07229 larvae [1]: unable to promote developmental progression
- median time to eclosion [1]: 10 days
- median time to pupariation [1]: 6 days
- EC50 (human peroxidasin): 2700 nM
